“Also recorded” adds a separate entry of the source. Bridges are numbered along the chain shown (N, C = ends). Where no end group is shown, it is not given here.
Legend:
TRPV1 = molecular target: T1, TRPV1 (Rattus norvegicus, UniProt O35433); test: cell-based
T1 construct: expressed in transfected cells; host or cells: Xenopus laevis oocytes injected with cRNA
Method: To control the expression level of the TRPV1 channels, experiments were initiated with a first activation of TRPV1 with 1 μM capsaicin (CAP). […] This activation gives an inward non-selective cation current. […] Before application of HCRG21, cells are washed with ND96 to remove any presence of […]. […] However, when rHCRG21 was co-applied together with the agonist capsaicin, a reduction of the current was observed (Figure 5b). […] A concentration–response curve was constructed in order to assess the concentration dependence of the rHCRG21 induced effect. The IC50 value yielded 6.9 ± 0.4 μM (Figure 5c).
Figure 5 Activity profile of rHCRG21 (10 μM) on the TRPV1 receptor. The figures show the results of one representative experiment. Whole-cell current traces in control and rHCRG21 conditions are shown. […] All data represent the average of at least three independent experiments (n ≥ 3) and are presented as mean ± standard error; (c) Concentration–response curve for rHCRG21 on TRPV1 receptor.
For the expression of rKv1.1, hKv1.3, rKv1.4, rKv1.5, rKv1.6, Shaker IR, hERG, and TRPV1 in Xenopus oocytes, the linearized plasmids were transcribed using the T7 or SP6 mMESSAGE-mMACHINE transcription kit (Ambion, Austin, TX, USA). The harvesting of stage V–VI oocytes from anaesthetized female Xenopus laevis frog was previously described. Oocytes were injected with 50 nL of cRNA at a concentration of 1 ng/nL using a micro-injector (Drummond Scientific, Broomall, PA, USA). The oocytes were incubated in a solution containing (in mM): NaCl, 96; KCl, 2; CaCl2, 1.8; MgCl2, 2 and HEPES, 5 (pH 7.4), supplemented with 50 mg/L gentamicin sulfate.
Two-electrode voltage-clamp recordings were performed at room temperature (18–22 °C) using a Geneclamp 500 amplifier (Molecular Devices, Sunnyvale, CA, USA) controlled by a pClamp data acquisition system (Axon Instruments, Foster City, CA, USA). Whole cell currents from oocytes were recorded 1–4 days after injection. Bath solution composition was ND96 (in mM): NaCl, 96; KCl, 2; CaCl2, 1.8; MgCl2, 2, and HEPES, 5 (pH 7.4). Voltage and current electrodes were filled with 3 M KCl. Resistances of both electrodes were kept between 0.8 and 1.5 MΩ. The elicited currents were filtered and sampled at, respectively, 1 kHz and 10 kHz (for potassium currents) and at, respectively, 0.2 kHz and 0.5 kHz (for TRPV1 currents), using a four-pole low-pass Bessel filter. Leak subtraction was performed using a –P/4 protocol. KV1.1–KV1.6 and Shaker currents were evoked by 500 ms depolarizations to 0 mV followed by a 500 ms pulse to −50 mV, from a holding potential of −90 mV. Current traces of hERG channels were elicited by applying a +40 mV prepulse for 2 s followed by a step to −120 mV for 2 s. TRPV1 currents were measured in ND96 solution using a protocol of −90 mV during 400 s. The recording chamber was perfused at a rate of 2 mL·min^−1 with a ND96 solution. As previously described, capsaicin (2 μM) was used as an agonist and capsazepine (10 μM) as an antagonist of TRPV1. Capsaicin and capsazepine were purchased from Sigma. All data represent at least 3 independent experiments (n ≥ 3) in which independent experiments represent experiments on different cells expressing TRPV1 channel and are presented as mean ± standard error.

rKv1.1 = test: Kv1.1 currents, two-electrode voltage-clamp in Xenopus laevis oocytes; type: cell-based; settings: 10 μM peptide, n ≥ 3; holding −90 mV, 500 ms to 0 mV; ND96 pH 7.4
Method: (§1) In order to characterize HCRG21 functionally, recombinant HCRG21 was, at a concentration of 10 μM, tested for its activity against an 8 voltage-gated potassium channels (Kv1.1–Kv1.6, hERG, and Shaker IR) and the vanilloid receptor 1 (TRPV1).
(§2) Figure 4 Activity of rHCRG21 on Kv channels expressed in X. laevis oocytes. Traces shown are representative of at least three independent experiments (n ≥ 3). The dotted line indicates the zero current level. The asterisk (*) distinguishes the steady-state current after application of 10 μM peptide.
(§3) For the expression of rKv1.1, hKv1.3, rKv1.4, rKv1.5, rKv1.6, Shaker IR, hERG, and TRPV1 in Xenopus oocytes, the linearized plasmids were transcribed using the T7 or SP6 mMESSAGE-mMACHINE transcription kit (Ambion, Austin, TX, USA). The harvesting of stage V–VI oocytes from anaesthetized female Xenopus laevis frog was previously described. […]
(§4) Two-electrode voltage-clamp recordings were performed at room temperature (18–22 °C) using a Geneclamp 500 amplifier (Molecular Devices, Sunnyvale, CA, USA) controlled by a pClamp data acquisition system (Axon Instruments, Foster City, CA, USA). Whole cell currents from oocytes were recorded 1–4 days after injection. […] TRPV1 currents were measured in ND96 solution using a protocol of −90 mV during 400 s. […]

hERG = hERG currents, two-electrode voltage-clamp in Xenopus laevis oocytes; type: cell-based; settings: 10 μM peptide, n ≥ 3; +40 mV prepulse 2 s, then −120 mV 2 s; ND96 pH 7.4
Method: as §1, §2, §3, §4

rKv1.6 = test: Kv1.6 currents, two-electrode voltage-clamp in Xenopus laevis oocytes; type: cell-based; settings: 10 μM peptide, n ≥ 3; holding −90 mV, 500 ms to 0 mV; ND96 pH 7.4
Method: as §1, §2, §3, §4

trypsin = test: Trypsin inhibition (Dixon method, BAPNA substrate); type: biochemical
Method: (§5) The trypsin/α-chymotrypsin inhibitory activity of the peptide was tested through the standard procedure using N-α-benzoyl-D,L-arginine p-nitroanilide hydrochloride (BAPNA) and ethyl ester of N-benzoyl-L-tyrosine (BTEE) as a substrates, respectively. Determination of the trypsin/α-chymotrypsin inhibition constants of rHCRG21 was performed according to the method of Dixon using substrates concentrations of 133 and 65 mM. The concentration of both enzymes in the reaction mixture was 215 nM. Concentrations of the tested peptide ranged from 0 up to 3.2 mM. The constants were calculated based on the results of three parallel experiments. Computational error limits are in the range of 0.1%–0.5%.

Kv1.2 = Kv1.2 currents, two-electrode voltage-clamp in Xenopus laevis oocytes; type: cell-based; settings: 10 μM peptide, n ≥ 3; holding −90 mV, 500 ms to 0 mV; ND96 pH 7.4
Method: as §1, §2
Two-electrode voltage-clamp recordings were performed at room temperature (18–22 °C) using a Geneclamp 500 amplifier (Molecular Devices, Sunnyvale, CA, USA) controlled by a pClamp data acquisition system (Axon Instruments, Foster City, CA, USA). Whole cell currents from oocytes were recorded 1–4 days after injection. Bath solution composition was ND96 (in mM): NaCl, 96; KCl, 2; CaCl2, 1.8; MgCl2, 2, and HEPES, 5 (pH 7.4). Voltage and current electrodes were filled with 3 M KCl. Resistances of both electrodes were kept between 0.8 and 1.5 MΩ. The elicited currents were filtered and sampled at, respectively, 1 kHz and 10 kHz (for potassium currents) and at, respectively, 0.2 kHz and 0.5 kHz (for TRPV1 currents), using a four-pole low-pass Bessel filter. […] TRPV1 currents were measured in ND96 solution using a protocol of −90 mV during 400 s. […]

rKv1.4 = test: Kv1.4 currents, two-electrode voltage-clamp in Xenopus laevis oocytes; type: cell-based; settings: 10 μM peptide, n ≥ 3; holding −90 mV, 500 ms to 0 mV; ND96 pH 7.4
Method: as §1, §2, §3, §4

rKv1.5 = test: Kv1.5 currents, two-electrode voltage-clamp in Xenopus laevis oocytes; type: cell-based; settings: 10 μM peptide, n ≥ 3; holding −90 mV, 500 ms to 0 mV; ND96 pH 7.4
Method: as §1, §2, §3, §4

Shaker IR = Shaker IR currents, two-electrode voltage-clamp in Xenopus laevis oocytes; type: cell-based; settings: 10 μM peptide, n ≥ 3; holding −90 mV, 500 ms to 0 mV; ND96 pH 7.4
Method: as §1, §2, §3, §4

α-chymotrypsin = α-chymotrypsin (Bos taurus, UniProt P00766); test: α-Chymotrypsin inhibition (Dixon method, BTEE substrate); type: biochemical; settings: 133 and 65 mM, enzyme 215 nM, peptide 0 up to 3.2 mM, three parallel experiments
Method: as §5

hKv1.3 = test: Kv1.3 currents, two-electrode voltage-clamp in Xenopus laevis oocytes; type: cell-based; settings: 10 μM peptide, n ≥ 3; holding −90 mV, 500 ms to 0 mV; ND96 pH 7.4
Method: as §1, §2, §3, §4

T1 sequence (O35433 whole entry): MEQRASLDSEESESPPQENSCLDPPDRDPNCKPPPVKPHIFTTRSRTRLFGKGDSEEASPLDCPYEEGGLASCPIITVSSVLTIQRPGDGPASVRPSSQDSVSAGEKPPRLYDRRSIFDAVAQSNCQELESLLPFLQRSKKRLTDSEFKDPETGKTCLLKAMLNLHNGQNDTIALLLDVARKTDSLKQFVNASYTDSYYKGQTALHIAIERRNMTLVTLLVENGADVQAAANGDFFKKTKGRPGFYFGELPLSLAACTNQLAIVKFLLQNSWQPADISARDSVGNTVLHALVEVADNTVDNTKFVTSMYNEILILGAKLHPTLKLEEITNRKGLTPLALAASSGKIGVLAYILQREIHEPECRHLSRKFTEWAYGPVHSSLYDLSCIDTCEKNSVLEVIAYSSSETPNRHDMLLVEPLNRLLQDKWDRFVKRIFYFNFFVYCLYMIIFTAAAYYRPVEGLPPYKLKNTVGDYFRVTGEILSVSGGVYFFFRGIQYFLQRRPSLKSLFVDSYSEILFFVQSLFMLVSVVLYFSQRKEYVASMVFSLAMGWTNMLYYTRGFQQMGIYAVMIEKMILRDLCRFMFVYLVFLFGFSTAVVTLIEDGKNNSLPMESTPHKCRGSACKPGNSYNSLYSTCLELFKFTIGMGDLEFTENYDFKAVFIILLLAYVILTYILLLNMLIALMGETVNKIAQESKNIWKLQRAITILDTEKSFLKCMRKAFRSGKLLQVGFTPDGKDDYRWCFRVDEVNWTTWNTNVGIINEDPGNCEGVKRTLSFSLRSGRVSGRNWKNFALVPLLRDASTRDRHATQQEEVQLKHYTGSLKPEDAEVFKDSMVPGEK

Sequence: RGICSEPKVVGPCTAYFRRFYFDSETGKCTPFIYGGCEGNGNNFETLRACRAICRA (disulfide 4-54, 13-37, 29-50 (inferred)) [rHCRG21]
- inhibition of capsaicin-induced TRPV1 current (TRPV1; 10 μM peptide co-applied with capsaicin (2 μM), −90 mV, ND96 pH 7.4, mean ± standard error, n ≥ 3): 59.3% ± 4.3%
- effect on TRPV1 when administered alone (TRPV1; 10 μM, in the absence of capsaicin): did not show any significant effect; also recorded: Lack of effect
- effect on TRPV1 when applied prior to capsaicin (TRPV1; applied prior to any stimulation of capsaicin, data not shown): no activity was seen
- IC50 (TRPV1; co-applied with capsaicin (2 μM), −90 mV, ND96 pH 7.4, 18–22 °C, mean ± standard error, n ≥ 3, read-out: IC50, inhibition of capsaicin-induced TRPV1 current): 6.9 ± 0.4 µM
- effect on TRPV1 channel (conclusion) (TRPV1; electrophysiological data): strongly inhibits the TRPV1 channel
- activity on Kv1.1 (rKv1.1): did not exert any activity
- activity on hERG (hERG): did not exert any activity
- activity on Kv1.6 (rKv1.6): did not exert any activity
- Ki (trypsin; Dixon method, BAPNA substrate, 133 and 65 mM, enzyme 215 nM, peptide 0 up to 3.2 mM, three parallel experiments): 200 nM
- Trypsin inhibitory activity of HPLC fraction (trypsin; fraction marked rHCRG21 after RP-HPLC): Trypsin inhibitory activity was detected
- activity on Kv1.2 (Kv1.2): did not exert any activity
- activity on Kv1.4 (rKv1.4): did not exert any activity
- activity on Kv1.5 (rKv1.5): did not exert any activity
- activity on Shaker IR (Shaker IR): did not exert any activity
- Ki (α-chymotrypsin): 700 nM
- activity on Kv1.3 (hKv1.3): did not exert any activity
